Laboratory results taken from patent publication US20210115040A1, “OGA INHIBITOR COMPOUNDS” (Janssen Pharmaceutica NV, priority 2018, published 2021).

Biological target: T1, OGA (Homo sapiens, UniProt O60502)
T1 construct: HEK293 cells inducible for P301L mutant human Tau (isoform 2N4R) were established at Janssen; endogenous in cells; host or cells: HEK293 cells inducible for P301L mutant human Tau (2N4R)
T1 sequence (O60502 1-916): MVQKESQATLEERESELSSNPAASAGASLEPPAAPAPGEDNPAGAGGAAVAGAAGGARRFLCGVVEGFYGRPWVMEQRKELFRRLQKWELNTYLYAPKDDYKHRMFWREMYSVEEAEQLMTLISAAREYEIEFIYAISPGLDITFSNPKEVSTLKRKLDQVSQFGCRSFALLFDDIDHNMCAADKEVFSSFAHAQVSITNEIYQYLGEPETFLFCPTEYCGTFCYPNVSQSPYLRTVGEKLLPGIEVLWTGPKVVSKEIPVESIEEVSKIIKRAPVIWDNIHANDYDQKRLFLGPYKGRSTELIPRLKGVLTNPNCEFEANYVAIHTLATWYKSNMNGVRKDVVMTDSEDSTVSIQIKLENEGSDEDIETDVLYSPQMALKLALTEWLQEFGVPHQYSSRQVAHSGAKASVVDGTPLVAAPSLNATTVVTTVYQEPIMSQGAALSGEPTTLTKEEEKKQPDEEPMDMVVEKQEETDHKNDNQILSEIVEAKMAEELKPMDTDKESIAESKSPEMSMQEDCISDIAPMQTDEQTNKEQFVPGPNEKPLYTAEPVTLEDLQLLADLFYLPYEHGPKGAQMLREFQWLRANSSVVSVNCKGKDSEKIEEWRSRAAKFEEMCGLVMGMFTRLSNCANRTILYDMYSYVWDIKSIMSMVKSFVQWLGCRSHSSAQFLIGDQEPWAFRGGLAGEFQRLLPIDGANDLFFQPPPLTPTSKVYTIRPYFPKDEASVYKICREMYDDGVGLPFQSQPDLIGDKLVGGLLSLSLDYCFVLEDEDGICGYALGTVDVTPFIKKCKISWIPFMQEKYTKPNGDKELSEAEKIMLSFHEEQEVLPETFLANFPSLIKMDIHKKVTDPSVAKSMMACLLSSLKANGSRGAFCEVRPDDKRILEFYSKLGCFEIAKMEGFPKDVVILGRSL
Assay: OGA cellular assay (ICC detection of O-GlcNAcylated proteins in HEK293 cells inducible for P301L mutant human Tau)
Assay type: cell-based
Summary of the method: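 HEK293 cells inducible for P301L Tau (2N4R), seeded in low-glucose medium, treated with compound for 6 h at 0.2% DMSO. O-GlcNAc immunostained with CTD110.6 after PFA fixation; 488 nm intensity imaged, Hoechst nuclei counted for toxicity. IC50 by non-linear regression, 200 uM Thiamet G as maximum.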

Emax (HEK293, HEK293 cells inducible for P301L mutant human Tau, maximum = Thiamet G 200 uM): 79%
EC50 (HEK293 cells inducible for P301L mutant human Tau, 6 hours incubation, read-out: Cellular hOGA, pEC50 (converted)): 63.1 nM
Compound: Cc1cc(C2CCCN(C(C)c3ccc4sc(C)nc4n3)C2)cc(C)n1 (racemic) [Compound 39]
